The values below come from patent US11220491B2, “Photoprotective compositions containing Malassezia-derived compounds and/or chemical analogs thereof” (Versicolor Technologies, LLC, priority 2018, dated 2022).

Data set [1] deals with T1, arylhydrocarbon receptor (AhR) (Homo sapiens, UniProt P35869).
T1 sequence (P35869 11-848): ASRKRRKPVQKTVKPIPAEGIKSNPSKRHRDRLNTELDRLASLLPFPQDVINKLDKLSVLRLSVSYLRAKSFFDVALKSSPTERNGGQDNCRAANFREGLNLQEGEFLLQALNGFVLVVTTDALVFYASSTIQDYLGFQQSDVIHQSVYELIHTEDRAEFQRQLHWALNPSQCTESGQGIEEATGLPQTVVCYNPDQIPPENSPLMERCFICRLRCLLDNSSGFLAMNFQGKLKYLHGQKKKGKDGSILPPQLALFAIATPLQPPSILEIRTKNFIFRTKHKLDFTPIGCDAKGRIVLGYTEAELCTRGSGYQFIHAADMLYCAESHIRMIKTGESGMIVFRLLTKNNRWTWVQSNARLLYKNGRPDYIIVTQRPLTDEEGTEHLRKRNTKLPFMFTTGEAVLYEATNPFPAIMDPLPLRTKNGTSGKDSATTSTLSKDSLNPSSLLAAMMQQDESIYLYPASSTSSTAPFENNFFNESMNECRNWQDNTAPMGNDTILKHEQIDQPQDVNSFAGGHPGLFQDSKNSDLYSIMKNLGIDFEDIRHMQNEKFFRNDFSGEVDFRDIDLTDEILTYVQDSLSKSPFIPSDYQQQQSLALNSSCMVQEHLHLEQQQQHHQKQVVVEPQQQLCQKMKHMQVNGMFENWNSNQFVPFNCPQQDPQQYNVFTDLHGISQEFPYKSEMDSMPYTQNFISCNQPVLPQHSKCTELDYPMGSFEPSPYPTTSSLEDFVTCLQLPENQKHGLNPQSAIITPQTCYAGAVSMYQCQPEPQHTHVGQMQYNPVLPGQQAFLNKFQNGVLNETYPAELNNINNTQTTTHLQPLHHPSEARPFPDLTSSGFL
The data set can be described thus: HepG2-AhR-Luciferase assay.

Data set [2] deals with T1, arylhydrocarbon receptor (AhR). Set-up: HepG2 cells stably transfected with an AhR-responsive luciferase reporter gene plasmid; host or cells: HepG2-AhR-Luc (HepG2 stably transfected with an AhR-responsive luciferase reporter plasmid). The following applies: cited from earlier work.
Data set [3] deals with MeWo cells. As to the kind of experiment: Lactate dehydrogenase (LDH) release assay (Example 10). In kind it is cell-based. The following applies: 100, 10, 1 μM; 6, 24, 48, 72 hours. The procedure: (§1) The LDH assay quantitatively measures lactate dehydrogenase (“LDH”) released into the media from damaged cells as a biomarker for cytotoxicity and cytolysis.
(§2) CytoTox-ONE™ Homogenous Membrane Integrity Assay was purchased from Promega. Cell seeding, preparation of the compound source plate, and exposure of cells to test compounds were performed as described in Example 8.
(§3) Plates were then centrifuged at 1,000 RPM for 1 minute. 20 μL of cell culture medium was transferred into a new 384-well black solid plate. Then, 20 μL of CytoTOX-ONE™ was added into each well and incubated at room temperature for 10 minutes. Afterward, 10 μL of stop solution were added to each well, and the plates were agitated at 500 rpm for 1 minute. Plates were read using an excitation wavelength of 560 nm and an emission wavelength of 590 nm on EnSpire. The relative activity was calculated according to the following formula: Relative Activity (%)=100%×(Lumsample−Lumbkg)/(Lumvehicle−Lumbkg).

In data set [4] the test system is WM115 cells. The data set is described as above. In kind it is cell-based. Particulars: 100, 10, 1 μM; 6, 24, 48, 72 hours. How it is done:
as §1, §2, §3

Data set [5] relates to MeWo cells. The data set can be described thus: Annexin V assay, additional evaluation (Example 8). In kind it is cell-based. The following applies: 100, 10, 1 μM; 6, 24, 48, 72 hours. The procedure:
(§4) To further investigate the impact of test compounds on apoptosis, multiple readouts, covering different stages of apoptosis, were carried out on both MeWo and WM115 cells. Both cell types were treated with test compounds at 3 doses (100 μM, 10 μM, and 1 μM). Staurosporine was used as a positive control. […] The test compounds evaluated were CV-8684. CV-8685, and CV-8688.
(§5) Cell seeding was performed as discussed above with the following exceptions: the final cell density was 4,000 cells/well for 6-hour and 24-hour detections, whereas 2,000 cells/well were used for 48-hour and 72-hour detections. For each time point. 384-well clear bottom plates (Corning 3712) and solid white bottom plates (Corning 3570) were prepared. The plates were incubated as discussed above.
(§6) For preparation of the compound source plate, each test compound was dissolved in DMSO to 10 mM stock. Two additional concentrations were generations by 10-fold dilution to 1 mM and 0.1 mM. Staurosporine was used as positive control and 1% DMSO was employed as vehicle (negative) control. The compound source plate was spun at room temperature at 1,000 RPM for 1 minute and agitated using a plate shaker for 2 minutes.
(§7) 400 nL of test compound was transferred from the compound source plate to 384-well culture plates using Echo550 liquid handler. After 6, 24, 48, and 72 hours, the plates were removed from the incubator for detections.
(§8) Culture media was removed and cells were washed twice with PBS. 20 μL of pre-mixed annexin V-FITC working solution was added to each well. The cells were incubated at room temperature for 20 minutes. Plates were read using Acumen eX3 to count the number of FITC-positive cells. The relative activity was calculated according to the following formula: Relative Activity (%)=100%×(Countsample/Countvehicle).

The test system of data set [6] is WM115 cells. The data set can be described thus: Annexin V assay, additional evaluation (Example 8). In kind it is cell-based. Particulars: 100, 10, 1 μM; 6, 24, 48, 72 hours. How it is done:
as §4, §5, §6, §7, §8

Data set [7] relates to WM115 cells. As to the kind of experiment: CellTiter-Glo cell viability assay (Example 9). In kind it is cell-based. Particulars: 100, 10, 1 μM; 6, 24, 48, 72 hours. How it is done: (§9) CellTiter-Glo® 2.0 assay was purchased from Promega. Cell seeding, preparation of the compound source plate, and exposure of cells to test compounds were performed as described in Example 8.
(§10) CellTiter-Glo® reagents were thawed and equilibrated to room temperature before the experiment. 40 μL of CellTiter-Glo® reagent was then added to each well for detection (at 1:1 ratio to culture medium). The plates were then incubated at room temperature for 30 minutes and read using EnSpire (PerkinElmer) plate reader. The remaining activity was calculated according to the following formula: Remaining Activity (%)=100%×(Lumsample−Lumbkg)/(Lumvehicle−Lumbkg).
In general terms: ATP-based viability assays read luminescence as a measure of living cells.

Data set [8] has as its system MeWo cells. The data set can be described thus: Cell morphology after treatment (Example 6). In kind it is cell-based. The following applies: 100 μM, 6 hours.
For data set [9], the system named is WM115 cells. The data set can be described thus: Cell morphology after treatment (Example 6). In kind it is cell-based. The following applies: 100 μM, 6 hours.
For data set [10], the system named is MeWo cells. The data set can be described thus: CellTiter-Glo cell viability assay (Example 9). In kind it is cell-based. Particulars: 100, 10, 1 μM; 6, 24, 48, 72 hours. The procedure:
as §9, §10

A further data set concerns Candida albicans. The following applies: cited from earlier work.
For another data set, the system named is staphylococci. The following applies: cited from earlier work.
For data set [11] the following is noted: cited from earlier work.
[12] abbreviates: EC50 (uM), Table 2, 24 hours of treatment.
Setting [13] is: EC50 (uM), Table 1, 24 hours of treatment.

One may read the EC50 as the concentration needed to bring the measured effect to its halfway point.

Where “and” joins values, the source holds several entries; their conditions need not be identical. Equal values may be shown once. Read-outs that look alike come from different tables or passages of the source.

In [1] (setting [12]), `O=C(c1c[nH]c2ccccc12)c1nccc2c1[nH]c1ccccc12` [AB17014, Pityriacitrin] came in with an EC50 of 3.46 µM. For `O=Cc1c2[nH]c3ccccc3c2cc2[nH]c3ccccc3c12` [6-formylindolo[3,2-b] carbazole (FICZ), 6-formylindolo[3,2-b] carbazole], the AhR agonism result in data set [2] is given as “Agonists”. As to `COC(c1[nH]c2ccccc2c1C=O)c1c[nH]c2ccccc12` (stereo not drawn) [Compound H (AB12509)], a half-maximal effect in data set [1] (setting [12]) (EC50) was put at 11.6 µM. For `O=C1Nc2ccccc2/C1=C1/Nc2ccccc2C1=O` [Indirubin], in data set [2], the AhR agonism result was “known agonist”. In data set [1] (setting [12]), `c1ccc2[nH]c(Cc3c[nH]c4ccccc34)cc2c1` [Malassezin Precursor] had an EC50 of 37.3 µM. With `COc1ccc2[nH]c([S+]([O-])Cc3ncc(C)c(OC)c3C)nc2c1` (stereo not drawn) [Omeprazole, omeprazole, reference compound], the concentration for a half-maximal effect (EC50) in [1] (setting [13]) is 21.4 µM; in data set [1] (setting [12]), 42.3 µM and 39.8 µM. In data set [1] (setting [12]), `O=C[C@@H]1Cc2c([nH]c3ccccc23)[C@@H](c2c[nH]c3ccccc23)CN1` [AB17011, Malassezia Indole A] gave an EC50 of 35.8 µM. The same measure, in the same setting: to `O=Cc1c(C(=O)c2c[nH]c3ccccc23)[nH]c2ccccc12` [Compound A5 (CV-8819)] belongs 4.11 µM; to `CC(c1[nH]c2ccccc2c1C(=O)O)c1c[nH]c2ccccc12` (stereo not drawn) [Compound B10], 4.29 µM. Same read-out and setting: the value for `CC(c1[nH]c2ccccc2c1C=O)c1c[nH]c2ccccc12` (stereo not drawn) [Compound II (CV-8688] was 13.4 µM. Turning to `O=Cc1c(Cc2c[nH]c3ccccc23)[nH]c2ccccc12` [CV-8684, Malassezin], the LDH release result with MeWo cells [3] and in the data set with WM115 cells [4] was “did not induce significant release” each time. The molecule further returned an EC50 in data set [1] (setting [13]) of 4.19 µM. Besides, the “apoptosis induction (annexin V binding)” value in the data set on MeWo cells [5] and in the data set with WM115 cells [6] was “induced apoptosis at the highest concentration tested after 6 hours of treatment” throughout. Further, the “inhibition of cell viability” value in the data set on WM115 cells [7] and in the data set on MeWo cells [10] was “dose-dependent inhibition of cell viability” each time. The cell morphology result in the data set on MeWo cells [8] and in the data set with WM115 cells [9] was “significantly affected” throughout. Regarding Pityriacitrin, the UV-protective effect result in the data set with Candida albicans and in the data set with staphylococci was “UV-protective effect” throughout. In addition, the toxicity result in the data set with Candida albicans and in the data set on staphylococci was “no toxicity” in each case. Also, the SPF in [11] (1.25% cream) was 1.4; in data set [11] (2.5% cream), 1.5; in data set [11] (5% cream) it was 1.7. The molecule `Cc1ccc2c(c1)[nH]c1c(C)c3c(cc12)[nH]c1ccccc13` [AB17225] displayed an EC50 in data set [1] (setting [12]) of 3.93 µM. Same read-out and setting: to `O=C(Cc1c[nH]c2ccccc12)Cc1c[nH]c2ccccc12` [AB12976] belongs 16.5 µM. Consider `OCc1c(Cc2c[nH]c3ccccc23)[nH]c2ccccc12` [CV-8803], for which the concentration for a half-maximal effect (EC50) in [1] (setting [13]) was 13.9 µM.

Take `Nc1ccccc1C(=O)CC(N)C(=O)O` (stereo not drawn) [kynurenine]: the AhR agonism entry in data set [2] is “Agonists”.

In [1] (setting [12]), `Cc1ccc2c(c1)[nH]c1cc3c(cc12)[nH]c1ccccc13` [Compound IV (CV-8687)] had a concentration giving a half-maximal response (EC50) of 33.6 µM. In data set [1] (setting [12]), `COC(=O)c1c(C(c2c[nH]c3ccccc23)C2CC2)[nH]c2ccccc12` (stereo not drawn) [AB17151] came in with an EC50 of 13.7 µM.

As to `Nc1c(C(=O)O)c2nc3c(C(=O)O)cccc3oc-2cc1=O` [cinnabarinic acid], the AhR agonism result in data set [2] is on record as “Agonists”.

On to `c1ccc2c(c1)[nH]c1cc3c(cc12)[nH]c1ccccc13` [CV-8685, indolo[3,2-b] carbazole], for which the LDH release result with WM115 cells [4] is listed as “dose-dependent induction effect on LDH release”. Besides, the results for the EC50 in [1] (setting [13]) and in data set [1] (setting [12]) were 6.6 µM and 15.2 µM, respectively. Further, the results for the “apoptosis induction (annexin V binding)” value in the data set on MeWo cells [5] and in the data set with WM115 cells [6] were 48 hours of treatment appeared to elicit apoptosis and “showed the induction effect with 24 hours of treatment”, respectively. The “inhibition of cell viability” value with WM115 cells [7] was “inhibitory effect on WM115 cell viability in a dose-dependent manner only after 24-hour treatment”. Moreover, the cell morphology entry in the data set with WM115 cells [9] is reported as “only affect WM115”. In [1] (setting [12]), `Cc1ccc2c(Cc3[nH]c4ccccc4c3C=O)c[nH]c2c1` [Compound I (CV-8686)] returned an EC50 of 5.45 µM. In data set [1] (setting [13]), `CC(c1[nH]c2ccccc2c1CO)c1c[nH]c2ccccc12` (stereo not drawn) [CV-8804] yielded an EC50 of 15.7 µM. In the case of `Clc1cc2c(cc1Cl)Oc1cc(Cl)c(Cl)cc1O2` [TCDD, 2,3,7,8-tetrachlorodibenzodioxin, reference compound], in data set [1] (setting [12]), the EC50 was 0.0018 µM and 0.0031 µM. For `Cc1ccc2cc3c(ccc4ccccc43)c3c2c1CC3` [Compound 3-MC, 3-methylcholanthrene, reference compound], the EC50 in [1] amounted to 4.34 µM.
